# Data reported in patent USRE37525E1, “Method for treating infectious respiratory diseases” (priority 1991, dated 2002).
# Where “and” joins values, the source holds several entries; their conditions need not be identical. Equal values may be shown once. Entries after “also recorded” stand apart in the source; their conditions may differ. Read-outs that look alike come from different tables or passages of the source.
# Experiments:
# [1] = system: respiratory syncytial virus (RSV); type: in vivo; conditions: for % Bronchioles: group mean, Table 8, triamcinolone acetonide 4 mg/kg, ribavirin 20 mg/kg, topical Days 3, 4, 5, Day 6; for effect on pulmonary pathology (in words): topical treatment Days 3, 4, 5
# Method: (§1) Triamcinolone acetonide was selected as the prototypical corticosteroid for the combined anti-infective and anti-inflammatory studies. […] Cotton rats were infected (Day 0) by intranasal instillation of PIV3 (10^6 pfu/animal) or RSV (10^5 pfu/animal). Animals were anesthetized with methoxyflurane, and the inoculating virus was delivered in a volume of 0.1 ml/100 gm body weight of the animal. On Day 3, animals were anesthetized with methoxyflurane, and treated by intranasal instillation of anti-infective agent or a combination of anti-infective agent and corticosteroid, in a volume of 0.1 ml/100 gm body weight. The same treatment was repeated once per day on Days 4 and 5. For purposes of comparison, control animals were infected concurrently on Day 0, but received no treatment on Days 3, 4, or 5. On Day 6, the time of maximum pulmonary pathology in infected, untreated animals, all animals were euthanized by carbon dioxide intoxication.
# (§2) Three experiments were performed using combined therapy: (1) anti-PIV3 antibody (100 mg/kg) and triamcinolone acetonide (4 mg/kg) were used to treat PIV3 infection; (2) anti-RSV antibody (25 mg/kg) and triamcinolone acetonide (4 mg/kg) were used to treat RSV infection; (3) ribavirin (20 mg/kg) and triamcinolone acetonide (4 mg/kg) were used to treat RSV infection. All agents were administered topically as described above in “Drug Testing”.
# Histopathology studies. After animals were sacrificed by carbon dioxide intoxication, the chest cavity was opened, and the heart and lungs removed intact. The trachea was cannulated with a blunt needle, the lungs inflated with 10% neutral buffered formalin to their normal volume, and the trachea tied with a suture. Coronal sections of the lungs were cut at a thickness of 4 microns, and stained with hematoxylin and eosin.
# Standard published pathologic criteria for the identification and scoring of bronchiolitis and interstitial pneumonia were used (Porter, 1991 J. Virol. 65:103-111). Briefly, bronchiolitis is the accumulation of inflammatory cells, mostly or exclusively lymphocytes, in and around bronchioles. There may be accompanying damage to the epithelial cells, including loss of cilia or cell death. Interstitial pneumonia is thickening of the alveolar walls, usually accompanied by infiltration of inflammatory cells into the alveolar septae. Bronchiolitis was quantitated by examining each bronchiole within the lung section (generally 40-70 bronchioles) and scoring for the presence or absence of lymphocytic infiltration. The percentage of affected bronchioles was then calculated. Interstitial pneumonia was quantitated by estimating the percentage of affected alveolar tissue in the lung section. A minimum of four animals were examined for each time point. Arithmetic means of pathology scores were calculated, and differences between treatment groups evaluated by the Student t-test of summary data. In each experiment, uninfected animals served as sentinels to rule out the presence of adventitious agents.
# [2] = system: respiratory syncytial virus (RSV); type: in vivo; conditions: topical treatment Days 3, 4, 5
# Method: as §1, §2
# (§3) Cotton rats were challenged to induce infection in the following manner. The frozen virus (usually at a concentration of 10^5 pfu/ml) was thawed and then immediately instilled (0.05 ml/nostril) into anesthetized cotton rats. […] Lungs were removed from the animal, homogenized in tissue culture fluid, and cultured on HEp2 monolayers. The amount of virus was then quantified.
# (§4) A single pool of purified human IgG, with known neutralizing antibody titer, was used with each virus throughout the experiments, to minimize experimental variability. […] Once determined, this dose was used in all subsequent experiments.
# (§5) Titrations of virus in pulmonary tissues. Animals were sacrificed by carbon dioxide intoxication. After the thoracic wall was removed aseptically, the lungs were dissected from the heart, and homogenized in a TenBroeck tissue grinder in 10 parts (v:w) of Hanks, balanced salt solution, modified for stabilizing virus by the addition of 0.218 M sucrose, 4.4 mM glutamate, 3.8 mM KH2PO4 and 7.2 mM K2HPO4. […] After four days incubation at 37° C. under methylcellulose overlay, the cells were stained with crystal violet in glutaraldehyde solution, and the plaques counted. Viral titers were expressed as a geometric mean, plus or minus the standard error, for all animals (a minimum of four) at a given time point. […]
# [3] = system: parainfluenza virus type 3 (PIV3); type: in vivo, cotton rats (Sigmodon hispidus)
# Text: (§6) Inbred cotton rats (Sigmodon hispidus) were obtained from the colony of Virion Systems, Inc. Adult animals, free from specific rodent pathogens, were used. Animals were housed in large polycarbonate rat cages with a bedding of hardwood chips, and fed a diet of standard rat chow and water. Adult animals ranging from 1 to 8 months of age were used. No age-related differences in response to infection or treatment were seen.
# (§7) Hydrocortisone acetate was selected as the prototypical corticosteroid for the anti-inflammatory studies. Cotton rats were infected (Day 0) by intranasal instillation of PIV3 (10^6 pfu/animal) or Ad-5 (10^9 pfu/animal). Animals were anesthetized with methoxyflurane, and the inoculating virus was delivered in a volume of 0.1 ml/100 gm body weight of the animal. On Day 3, animals were anesthetized with methoxyflurane, and hydrocortisone acetate (50 mg/ml) was instilled intranasally in a volume of 0.1 ml/100 gm body weight. The same treatment with hydrocortisone acetate was repeated once per day on Days 4 and 5. For purposes of comparison, control animals were infected concurrently on Day 0, but received no treatment on Days 3, 4, or 5. On Day 6, all animals were euthanized by carbon dioxide intoxication.
# These included dexamethasone acetate (8 mg/ml) and triamcinolone acetonide (40 mg/ml). Of course, other corticosteroids or anti-inflammatory agents known to one of ordinary skill in the art could also be used.
# (§8) Lungs were removed from the thorax and inflated through the trachea with neutral buffered formalin. Histologic sections were made by following standard procedures and stained with hematoxylin and eosin (H&E).
# (§9) Topical administration was accomplished by anesthetizing the animals, holding them in a vertical posture, and instilling a solution containing corticosteroid onto the nares. A total volume of 0.1 ml/100 gm body weight was used. […] However, for human administration it is desirable to use a small particle aerosol delivered by a device that could be triggered by inhalation or used synchronously with the inhalation phase of ventilation for patients on a ventilator. Such a device could deliver aerosol from powder (spinhaler) or liquid. Since many patients, especially young infants and debilitated adults, may have diminished respiratory inhalation vigor, it is important to synchronize aerosol generation with inhalation. This could be accomplished by having inhalation trigger the aerosol delivery to the airway (nasal prongs, oral tube, etc.). The trigger mechanism could include negative pressure from inhalation, chest movement, or electrical triggering synchronized with diaphragmatic contraction. Electrical leads used to monitor respirations could be used to synchronize aerosol generation to be triggered at the first initiation of diaphragmatic contraction and respiration. Any form of aerosol generator is suitable if aerosol delivery is synchronized with inhalation and appropriate particle size is consistently generated.
# (§10) Therapeutic efficacy is determined by comparing two parameters in treated versus control animals: (1) the percentage of alveoli on a single H&E-stained coronal section of lungs containing interstitial and/or intraalveolar pathology; and (2) the percentage of bronchioles, on the same section of lungs, affected by peribronchiolar lymphocytic infiltration.
# Triamcinolone acetonide was selected as the prototypical corticosteroid for the combined anti-infective and anti-inflammatory studies. […] Therefore, the use of triamcinolone acetonide is merely by example of a general property of corticosteroids. Cotton rats were infected (Day 0) by intranasal instillation of PIV3 (10^6 pfu/animal) or RSV (10^5 pfu/animal). Animals were anesthetized with methoxyflurane, and the inoculating virus was delivered in a volume of 0.1 ml/100 gm body weight of the animal. […]
# [4] = system: parainfluenza virus type 3 (PIV3); type: in vivo; conditions: topical treatment Days 3, 4, 5
# Method: as §1, §2, §3, §4, §5
# [5] = system: adenovirus type 5 (Ad-5); experiment: Pulmonary pathology (histology) in Ad-5-infected cotton rats; type: in vivo
# Text: as §6, §7, §8, §9, §10
# [6] = group mean, Experiment 5, dexamethasone acetate 8 mg/ml or triamcinolone acetonide 40 mg/ml intranasal Days 3-5, Day 6
# [7] = group mean, Table 6, triamcinolone acetonide 4 mg/kg, anti-PIV3 IgG 100 mg/kg, topical Days 3, 4, 5, Day 6
# [8] = mean, Exps. 1, 2, 6 and 7 combined
# [9] = range over experiments, treated vs control
# [10] = individual animals (Exps. 3, 4)
structure (smiles),measurement,setting,value
"NC(=O)c1ncn([C@@H]2O[C@H](CO)[C@@H](O)[C@H]2O)n1 [Ribavirin, 1-beta-D-ribofuranosyl-1,2,4,-triazole-3-carboxamide]",% Bronchioles,[1],48 (N.S.) %
same,therapeutic effectiveness against RSV infection (in words),"[1]; ribavirin 20 mg/kg topical, cotton rat",minimally effective
same,effect on pulmonary pathology (in words),[1],nor affected pulmonary pathology
same,effect on pulmonary pathology (in words),[1]; listed as ribavirin,no effect on pulmonary pathology
same,effect on viral titers / viral shedding (in words),[2],neither effected a significant reduction in pulmonary RSV titers
same,effect on viral titers / viral shedding (in words),[2]; listed as ribavirin,did not reduce viral titers
"CC(=O)OCC(=O)[C@@]1(O)[C@H](C)C[C@H]2[C@@H]3CCC4=CC(=O)C=C[C@]4(C)[C@@]3(F)[C@@H](O)C[C@@]21C [Dexamethasone, dexamethasone acetate]",reduction of alveolar inflammation compared to control values,[3]; Experiment 5,28%
same,reduction of bronchiolar inflammation compared to control values,[3]; Experiment 5,75%
same,% Alveoli,[3]; [6],50%
same,% Bronchioles,[3]; [6],21%
same,% Bronchioles,"[3]; individual animals, Experiment 5",29% and 21% and 14%
"CC1(C)O[C@@H]2C[C@H]3[C@@H]4CCC5=CC(=O)C=C[C@]5(C)[C@@]4(F)[C@@H](O)C[C@]3(C)[C@]2(C(=O)CO)O1 [Triamcinolone, triamcinolone acetonide]",reduction of alveolar inflammation compared to control values,[3]; Experiment 5,80%
same,reduction of bronchiolar inflammation compared to control values,[3]; Experiment 5,89%
same,% Alveoli,[3]; [6],24% and 24 (p < 0.01) %
same,% Bronchioles,[3]; [6],9% and 9 (p < 0.001) %
same,% Alveoli,[3]; [7],10 (p < 0.05) % and 10%
same,% Bronchioles,[3]; [7],6 (p < 0.001) % and 6%
same,% Bronchioles,[1],0 (p < 0.001) %
same,effect on pulmonary pathology (in words),[1],dramatically reduced; also recorded: reduced pulmonary pathology
same,effect on viral titers / viral shedding (in words),[4],increased and prolonged viral shedding; also recorded: prolonged and increased viral shedding
same,effect on viral titers / viral shedding (in words),[2],prolonged and increased viral shedding
"CC(=O)OCC(=O)[C@@]1(O)CC[C@H]2[C@@H]3CCC4=CC(=O)CC[C@]4(C)[C@H]3[C@@H](O)C[C@@]21C [hydrocortisone acetate, Hydrocortisone acetate]",% Bronchioles,"[3]; group mean per experiment (Exps. 1, 2, 6, 7), hydrocortisone acetate 50 mg/ml, 0.1 ml/100 gm intranasal Days 3, 4, 5, histology Day 6",9% and 15%
same,% Alveoli,[3]; [8],24%
same,% Bronchioles,[3]; [8],15%
same,"net reduction in disease, alveolar inflammation",[3]; [9],27-56%
same,"net reduction in disease, bronchiolar inflammation",[3]; [9],77-85%
same,exacerbated disease in treated animals,[3]; topical hydrocortisone acetate,no evidence of exacerbated disease
same,% Alveoli,[5]; [10],10% (2×) and 5% and 9% and 50% and 40% (2×) and 20%
same,% Bronchioles,[5]; [10],18% and 16% and 21% and 8% and 26% and 37% and 42% and 50%
same,"net reduction in disease, alveolar inflammation",[5]; [9],46-79%
same,"net reduction in disease, bronchiolar inflammation",[5]; [9],57-77%
same,exacerbated disease in treated animals,[5]; topical hydrocortisone acetate,no evidence of exacerbated disease
